Source: patent US5075289A, “9-R-azacyclic erythromycin antibiotics” (priority 1988, dated 1991)
≈ marks a conversion by molar mass, not a printed value. Where two headings read alike, the source gives them in different places.

Experiments:
Type in all cases: cell-based
[1] = tested on: Staphylococcus aureus 45 RAR 2; experiment: microbe, parasite or virus in culture; conditions: 45RAR2
Description: (§1) The antimicrobial spectra of a number of compounds of the invention were tested by the following method:
(§2) Twelve petri dishes containing successive aqueous dilutions of the test compound mixed with 10 ml of sterilized Brain Heart Infusion agar (Difco 0418-01-5) are prepared. Each plate is inoculated with 1:100 (or 1:10 for slow growing strains, primarily Micrococcus and Streptococcus) dilutions of up to 32 different microorganisms, using a Steers replicator block The inoculated plates are incubated at 35°-37° C. for 20-24 hours. In addition, a control plate, using BHI agar containing no test compound, is prepared and incubated at the beginning and end of each test.
(§3) An additional plate containing a compound having known susceptibility patterns for the organisms being tested and belonging to the same antibiotic class as the test compound is also prepared and incubated as a further control, as well as to provide test-to-test comparability. Erythromycin A was used for this purpose.
(§4) After incubation, each disk is read. The MIC is defined as the lowest concentration of drug yielding no growth, a slight haze, or sparsely isolated colonies on the inoculum spot as compared to the growth control.

[2] = tested on: Staphylococcus aureus NCTC 10649; experiment: In vitro antibacterial activity, agar dilution MIC
Description: as §1, §2, §3, §4

[3] = tested on: Staphylococcus epidermidis 3519; experiment: In vitro antibacterial activity, agar dilution MIC
Description: as §1, §2, §3, §4

[4] = tested on: Enterococcus faecium ATCC 8043; experiment: In vitro antibacterial activity, agar dilution MIC
Description: as §1, §2, §3, §4

[5] = tested on: Escherichia coli H560; experiment: In vitro antibacterial activity, agar dilution MIC
Description: as §1, §2, §3, §4

[6] = tested on: Streptococcus pyogenes EES61; experiment: In vitro antibacterial activity, agar dilution MIC
Description: as §1, §2, §3, §4

[7] = tested on: Streptococcus bovis A5169; experiment: In vitro antibacterial activity, agar dilution MIC
Description: as §1, §2, §3, §4

[8] = tested on: Escherichia coli Juhl; experiment: In vitro antibacterial activity, agar dilution MIC
Description: as §1, §2, §3, §4

[9] = tested on: Streptococcus agalactiae CMX 508; experiment: In vitro antibacterial activity, agar dilution MIC
Description: as §1, §2, §3, §4

[10] = tested on: Staphylococcus aureus CMX 553; experiment: In vitro antibacterial activity, agar dilution MIC
Description: as §1, §2, §3, §4

[11] = tested on: Escherichia coli SS; experiment: In vitro antibacterial activity, agar dilution MIC
Description: as §1, §2, §3, §4

[12] = tested on: Staphylococcus aureus ATCC 6538P; experiment: In vitro antibacterial activity, agar dilution MIC; conditions: ATCC6538P
Description: as §1, §2, §3, §4

[13] = tested on: Streptococcus pyogenes 930 CONST; experiment: In vitro antibacterial activity, agar dilution MIC
Description: as §1, §2, §3, §4

[14] = tested on: Staphylococcus aureus 45; experiment: In vitro antibacterial activity, agar dilution MIC
Description: as §1, §2, §3, §4

[15] = tested on: Escherichia coli DC-2; experiment: In vitro antibacterial activity, agar dilution MIC
Description: as §1, §2, §3, §4

[16] = tested on: Staphylococcus aureus A5177; experiment: In vitro antibacterial activity, agar dilution MIC
Description: as §1, §2, §3, §4

[17] = tested on: Staphylococcus aureus 642A; experiment: In vitro antibacterial activity, agar dilution MIC
Description: as §1, §2, §3, §4

[18] = tested on: Micrococcus luteus ATCC 9341; experiment: In vitro antibacterial activity, agar dilution MIC
Description: as §1, §2, §3, §4

[19] = tested on: Micrococcus luteus ATCC 4698; experiment: In vitro antibacterial activity, agar dilution MIC
Description: as §1, §2, §3, §4

[20] = tested on: Streptococcus pyogenes 2548 INDUC; experiment: In vitro antibacterial activity, agar dilution MIC
Description: as §1, §2, §3, §4

[21] = tested on: Staphylococcus aureus CMX 503A; experiment: In vitro antibacterial activity, agar dilution MIC; conditions: CMX503A
Description: as §1, §2, §3, §4

[22] = tested on: Staphylococcus aureus CMX 686B; experiment: In vitro antibacterial activity, agar dilution MIC; conditions: CMX686B
Description: as §1, §2, §3, §4

[23] = S. epidermidis 3519, Brain Heart Infusion agar, 20-24 hours, read-out: MIC
[24] = S. pyogenes EES61, Brain Heart Infusion agar, 20-24 hours, read-out: MIC
[25] = CMX508, S. agalactiae CMX 508, Brain Heart Infusion agar, 20-24 hours, read-out: MIC
[26] = CMX553, S. aureus CMX 553, Brain Heart Infusion agar, 20-24 hours, read-out: MIC
[27] = S. aureus A5177, Brain Heart Infusion agar, 20-24 hours, read-out: MIC
[28] = ATCC9341, M. luteus ATCC 9341, Brain Heart Infusion agar, 20-24 hours, read-out: MIC
[29] = ATCC8043, E. faecium ATCC 8043, Brain Heart Infusion agar, 20-24 hours, read-out: MIC
[30] = E. coli H560, Brain Heart Infusion agar, 20-24 hours, read-out: MIC
[31] = S. bovis A5169, Brain Heart Infusion agar, 20-24 hours, read-out: MIC
[32] = E. coli Juhl, Brain Heart Infusion agar, 20-24 hours, read-out: MIC
[33] = E. coli SS, Brain Heart Infusion agar, 20-24 hours, read-out: MIC
[34] = S. pyogenes 2548 INDUC, Brain Heart Infusion agar, 20-24 hours, read-out: MIC
[35] = S. aureus 45, Brain Heart Infusion agar, 20-24 hours, read-out: MIC
[36] = ATCC4698, M. luteus ATCC 4698, Brain Heart Infusion agar, 20-24 hours, read-out: MIC

SMILES	MIC [1] [mg/L]	MIC [3, 23] [mg/L]	MIC ([4]; ATCC8043) [mg/L]	MIC ([5]; H560) [mg/L]	MIC [6, 24] [mg/L]	MIC [8] [mg/L]	MIC [9, 25] [mg/L]	MIC [10, 26] [mg/L]	MIC [12] [mg/L]	MIC ([13]; 930CONST) [mg/L]	MIC [14]; 45 [mg/L]	MIC ([15]; DC2) [mg/L]	MIC [16, 27] [mg/L]	MIC [18, 28] [mg/L]	MIC ([19]; ATCC4698) [mg/L]	MIC ([2]; NCTC10649) [mg/L]	MIC [3]; 3519 [mg/L]	MIC [4, 29] [mg/L]	MIC [5, 30] [mg/L]	MIC [7, 31] [mg/L]	further results
CC[C@H]1OC(=O)[C@H](C)[C@@H](O[C@H]2C[C@@](C)(OC)[C@@H](O)[C@H](C)O2)[C@H](C)[C@@H](O[C@@H]2O[C@H](C)C[C@H](N(C)C)[C@H]2O)[C@](C)(O)C[C@@H](C)[C@@H](N2CCCC(C)(C)C2)[C@H](C)[C@@H](O)[C@]1(C)O [Example 1]	0.78 (≈ 0.938 µM)	0.78 (≈ 0.938 µM)	0.1 (≈ 0.12 µM)	6.2 (≈ 7.46 µM)	0.1 (≈ 0.12 µM)	25 (≈ 30.1 µM)	0.1 (≈ 0.12 µM)	0.78 (≈ 0.938 µM)	0.39 (≈ 0.469 µM)	> 100	0.39 (≈ 0.469 µM)	50 (≈ 60.2 µM)	6.2 (≈ 7.46 µM)	0.05 (≈ 0.0602 µM)	0.1 (≈ 0.12 µM)						MIC ([2]; NCTC10649, S. aureus NCTC 10649, Brain Heart Infusion agar, 20-24 hours, read-out: MIC): 0.78 mg/L (≈ 0.938 µM); MIC ([7]; read-out: MIC): 0.02 mg/L (≈ 0.0241 µM); MIC ([11]; read-out: MIC): 0.2 mg/L (≈ 0.241 µM); MIC ([17]; S. aureus 642A, Brain Heart Infusion agar, 20-24 hours, read-out: MIC): 0.78 mg/L (≈ 0.938 µM)
CC[C@H]1OC(=O)[C@H](C)[C@@H](O[C@H]2C[C@@](C)(OC)[C@@H](O)[C@H](C)O2)[C@H](C)[C@@H](O[C@@H]2O[C@H](C)C[C@H](N(C)C)[C@H]2O)[C@](C)(O)C[C@@H](C)[C@@H](N2CCCCCC2)[C@H](C)[C@@H](O)[C@]1(C)O [Example 2]	0.39 (≈ 0.477 µM)				0.05 (≈ 0.0612 µM)		0.05 (≈ 0.0612 µM)		0.39 (≈ 0.477 µM)	> 100		12.5 (≈ 15.3 µM)	0.31 (≈ 0.379 µM)	0.005 (≈ 0.00612 µM)		0.39 (≈ 0.477 µM)	0.39 (≈ 0.477 µM)	0.02 (≈ 0.0245 µM)	3.1 (≈ 3.79 µM)	0.02 (≈ 0.0245 µM)	MIC [8, 32]: 0.1 mg/L (≈ 0.122 µM); MIC ([10]; CMX553): 0.39 mg/L (≈ 0.477 µM); MIC [11, 33]: 0.1 mg/L (≈ 0.122 µM); MIC [20, 34]: 12.5 mg/L (≈ 15.3 µM); MIC [14, 35]: 0.2 mg/L (≈ 0.245 µM); MIC ([17]; 642A): 0.39 mg/L (≈ 0.477 µM); MIC [21]: 0.39 mg/L (≈ 0.477 µM); MIC [19, 36]: 0.1 mg/L (≈ 0.122 µM)
CC[C@H]1OC(=O)[C@H](C)[C@@H](O[C@H]2C[C@@](C)(OC)[C@@H](O)[C@H](C)O2)[C@H](C)[C@@H](O[C@@H]2O[C@H](C)C[C@H](N(C)C)[C@H]2O)[C@](C)(O)C[C@@H](C)[C@@H](N2CCCC2)[C@H](C)[C@@H](O)[C@]1(C)O [Example 3]	1.56 (≈ 1.98 µM)	1.56 (≈ 1.98 µM)			0.1 (≈ 0.127 µM)		0.2 (≈ 0.253 µM)	1.56 (≈ 1.98 µM)					25 (≈ 31.7 µM)	0.39 (≈ 0.494 µM)				0.39 (≈ 0.494 µM)	50 (≈ 63.4 µM)	0.1 (≈ 0.127 µM)	MIC [22]: 1.56 mg/L (≈ 1.98 µM); MIC [8, 32]: > 100 mg/L; MIC [11, 33]: 0.39 mg/L (≈ 0.494 µM); MIC [20, 34]: 50 mg/L (≈ 63.4 µM); MIC ([12]; S. aureus ATCC 6538P, Brain Heart Infusion agar, 35-37° C., 20-24 hours, read-out: MIC): 1.56 mg/L (≈ 1.98 µM); MIC ([13]; S. pyogenes 930 CONST, Brain Heart Infusion agar, 20-24 hours, read-out: MIC): > 100 mg/L; MIC [14, 35]: 0.78 mg/L (≈ 0.989 µM); MIC ([15]; DC2, E. coli DC-2, Brain Heart Infusion agar, 20-24 hours, read-out: MIC): 100 mg/L (≈ 127 µM); MIC [21]: 1.56 mg/L (≈ 1.98 µM); MIC [19, 36]: 0.78 mg/L (≈ 0.989 µM)
CC[C@H]1OC(=O)[C@H](C)[C@@H](O[C@H]2C[C@@](C)(OC)[C@@H](O)[C@H](C)O2)[C@H](C)[C@@H](O[C@@H]2O[C@H](C)C[C@H](N(C)C)[C@H]2O)[C@](C)(O)C[C@@H](C)[C@@H](N2CC2)[C@H](C)[C@@H](O)[C@]1(C)O [Example 4]	1.56 (≈ 2.05 µM)		0.2 (≈ 0.263 µM)	25 (≈ 32.9 µM)		> 100			1.56 (≈ 2.05 µM)	> 100	0.78 (≈ 1.02 µM)	100 (≈ 131 µM)			0.78 (≈ 1.02 µM)	1.56 (≈ 2.05 µM)	1.56 (≈ 2.05 µM)				MIC ([6]; EES61): 0.2 mg/L (≈ 0.263 µM); MIC [7]: 0.1 mg/L (≈ 0.131 µM); MIC ([9]; CMX508): 0.2 mg/L (≈ 0.263 µM); MIC ([10]; CMX553): 1.56 mg/L (≈ 2.05 µM); MIC [11]: 0.78 mg/L (≈ 1.02 µM); MIC ([20]; 2548INDUC): 12.5 mg/L (≈ 16.4 µM); MIC ([16]; A5177): 6.2 mg/L (≈ 8.15 µM); MIC ([17]; 642A): 1.56 mg/L (≈ 2.05 µM); MIC ([18]; ATCC9341): 0.1 mg/L (≈ 0.131 µM)
